For four compounds, IC50 and EC50 results are on record in patent publication US10604554B2, “Double-acylated GLP-1 derivatives” (Novo Nordisk A/S, priority 2012, dated 2020).

The target in assay [1] is T1, human GLP-1 receptor (Homo sapiens, UniProt P43220).
T1 construct: expressed in transfected cells; host or cells: BHK cells, clone FCW467-12A/KZ10-1 (parent line BHKTS13), further transfected with CRE luciferase
As to the kind of experiment: GLP-1 receptor binding (SPA, displacement of 125I-GLP-1). In a few lines: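 Tracer [125I]-GLP-1(7-36)NH2 at 0.06 nM final competed on hamster stably transfected cell membranes captured by WGA SPA beads; 120 min, 30 °C, scintillation count.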

The target of assay [2] is T1, human GLP-1 receptor. As to the kind of experiment: In vitro potency (CRE luciferase; whole cells). The settings on record: BHK cells. The assay is classed as cell-based. In a few lines:
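Reporter: CRE-luciferase in BHK cells stably expressing human GLP-1R, 5×10^3 cells/well; compounds tested in buffer containing 0% or 1% HSA.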

[3] abbreviates: Receptor binding affinity IC50 (high HSA), 2.0% HSA (high albumin).
Where [4] appears, read: In vitro potency (CRE luciferase) EC50 (0% HSA), 0% HSA.
Setting [5] is: In vitro potency (CRE luciferase) EC50 (1% HSA), 1% HSA.
Where [6] appears, read: Receptor binding affinity IC50 (low HSA), 0.001% HSA (low albumin).

Read-outs that look alike come from different tables or passages of the source.

T1 sequence (P43220 24-463): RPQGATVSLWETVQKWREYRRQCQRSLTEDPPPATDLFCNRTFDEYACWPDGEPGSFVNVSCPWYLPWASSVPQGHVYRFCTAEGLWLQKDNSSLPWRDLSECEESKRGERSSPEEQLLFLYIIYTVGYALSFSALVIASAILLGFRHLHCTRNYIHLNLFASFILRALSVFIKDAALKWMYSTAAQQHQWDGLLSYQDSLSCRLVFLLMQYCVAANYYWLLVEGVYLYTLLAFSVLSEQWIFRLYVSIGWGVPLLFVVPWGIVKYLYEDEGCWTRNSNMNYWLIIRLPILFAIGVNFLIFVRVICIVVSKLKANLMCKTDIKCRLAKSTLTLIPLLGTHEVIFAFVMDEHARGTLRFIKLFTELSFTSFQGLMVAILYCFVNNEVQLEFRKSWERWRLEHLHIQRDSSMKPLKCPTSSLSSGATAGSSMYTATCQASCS

`CC[C@H](C)[C@H](NC(=O)[C@H](Cc1ccccc1)NC(=O)[C@H](CCC(=O)O)NC(=O)[C@H](CCCCNC(=O)[C@@H](N)CCCCNC(=O)[C@@H](N)CCCCNC(=O)CC[C@H](NC(=O)CCCCCCCCCOc1ccc(C(=O)O)cc1)C(=O)O)NC(=O)[C@H](C)NC(=O)[C@H](C)NC(=O)[C@H](CCC(N)=O)NC(=O)CNC(=O)[C@H](CCC(=O)O)NC(=O)[C@H](CC(C)C)NC(=O)[C@H](Cc1ccc(O)cc1)NC(=O)[C@H](CO)NC(=O)[C@H](CO)NC(=O)[C@@H](NC(=O)[C@H](CC(=O)O)NC(=O)[C@H](CO)NC(=O)[C@@H](NC(=O)[C@H](Cc1ccccc1)NC(=O)[C@@H](NC(=O)CNC(=O)[C@H](CCC(=O)O)NC(=O)C(C)(C)NC(=O)[C@@H](N)Cc1c[nH]cn1)[C@@H](C)O)[C@@H](C)O)C(C)C)C(=O)N[C@@H](C)C(=O)N[C@@H](Cc1c[nH]c2ccccc12)C(=O)N[C@@H](CC(C)C)C(=O)N[C@H](C(=O)N[C@@H](CCCNC(=N)N)C(=O)NCC(=O)N[C@@H](CCCNC(=N)N)C(=O)N[C@@H](CCCCNC(=O)[C@@H](N)CCCCNC(=O)[C@@H](N)CCCCNC(=O)CC[C@H](NC(=O)CCCCCCCCCOc1ccc(C(=O)O)cc1)C(=O)O)C(=O)O)C(C)C` [Example 1, N^ε26-[(2S)-2-amino-6-[[(2S)-2-amino-6-[[(4S)-4-carboxy-4-[10-(4-carboxyphenoxy)decanoylamino]butanoyl]amino]hexanoyl]amino]hexanoyl], N^ε37-[(2S)-2-amino-6-[[(2S)-2-amino-6-[[(4S)-4-carboxy-4-[10-(4-carboxyphenoxy)decanoylamino]butanoyl]amino]hexanoyl]amino]hexanoyl]-[Aib^8, Arg^34,Lys^37]-GLP-1-(7-37)-peptide]: in assay [1] (setting [3]), the IC50 (in general, the concentration at which inhibition is half-maximal) was 13 nM. The 50% effective concentration (EC50) (as a rule, the concentration at which the effect is half-maximal) was found to be 0.004 nM in assay [2] (setting [4]) and 0.057 nM in assay [2] (setting [5]).

On to `CC[C@H](C)[C@H](NC(=O)[C@H](Cc1ccccc1)NC(=O)[C@H](CCC(=O)O)NC(=O)[C@H](CCCCNC(=O)[C@@H](N)CCCCNC(=O)[C@@H](N)CCCCNC(=O)CC[C@H](NC(=O)CCCCCCCCCCCCC(=O)O)C(=O)O)NC(=O)[C@H](C)NC(=O)[C@H](C)NC(=O)[C@H](CCC(N)=O)NC(=O)CNC(=O)[C@H](CCC(=O)O)NC(=O)[C@H](CC(C)C)NC(=O)[C@H](Cc1ccc(O)cc1)NC(=O)[C@H](CO)NC(=O)[C@H](CO)NC(=O)[C@@H](NC(=O)[C@H](CC(=O)O)NC(=O)[C@H](CO)NC(=O)[C@@H](NC(=O)[C@H](Cc1ccccc1)NC(=O)[C@@H](NC(=O)CNC(=O)[C@H](CCC(=O)O)NC(=O)C(C)(C)NC(=O)[C@@H](N)Cc1c[nH]cn1)[C@@H](C)O)[C@@H](C)O)C(C)C)C(=O)N[C@@H](C)C(=O)N[C@@H](Cc1c[nH]c2ccccc12)C(=O)N[C@@H](CC(C)C)C(=O)N[C@H](C(=O)N[C@@H](CCCNC(=N)N)C(=O)NCC(=O)N[C@@H](CCCNC(=N)N)C(=O)N[C@@H](CCCCNC(=O)[C@@H](N)CCCCNC(=O)[C@@H](N)CCCCNC(=O)CC[C@H](NC(=O)CCCCCCCCCCCCC(=O)O)C(=O)O)C(=O)O)C(C)C` [Example 2, N^ε26-[(2S)-2-amino-6-[[(2S)-2-amino-6-[[(4S)-4-carboxy-4-(13-carboxytridecanoylamino)butanoyl]amino]hexanoyl]amino]hexanoyl], N^ε37-[(2S)-2-amino-6-[[(2S)-2-amino-6-[[(4S)-4-carboxy-4-(13-carboxytridecanoylamino)butanoyl]amino]hexanoyl]amino]hexanoyl]-[Aib^8,Arg^34,Lys^37]-GLP-1-(7-37)-peptide], for which the 50% inhibitory concentration (IC50) stood at 0.24 nM in assay [1] (0.001% HSA (low albumin), read-out: Receptor binding affinity IC50 (low HSA)) and 29 nM in assay [1] (2.0% HSA (high albumin), read-out: Receptor binding affinity IC50 (high HSA)). The EC50 in assay [2] (setting [5]) was 0.059 nM.

Regarding `CC[C@H](C)[C@H](NC(=O)[C@H](Cc1ccccc1)NC(=O)[C@H](CCC(=O)O)NC(=O)[C@H](CCCCNC(=O)[C@@H](N)CCCCNC(=O)COCCOCCNC(=O)COCCOCCNC(=O)CC[C@H](NC(=O)CCCCCCCCCOc1ccc(C(=O)O)cc1)C(=O)O)NC(=O)[C@H](C)NC(=O)[C@H](C)NC(=O)[C@H](CCC(N)=O)NC(=O)CNC(=O)[C@H](CCC(=O)O)NC(=O)[C@H](CC(C)C)NC(=O)[C@H](Cc1ccc(O)cc1)NC(=O)[C@H](CO)NC(=O)[C@H](CO)NC(=O)[C@@H](NC(=O)[C@H](CC(=O)O)NC(=O)[C@H](CO)NC(=O)[C@@H](NC(=O)[C@H](Cc1ccccc1)NC(=O)[C@@H](NC(=O)CNC(=O)[C@H](CCC(=O)O)NC(=O)C(C)(C)NC(=O)[C@@H](N)Cc1c[nH]cn1)[C@@H](C)O)[C@@H](C)O)C(C)C)C(=O)N[C@@H](C)C(=O)N[C@@H](Cc1c[nH]c2ccccc12)C(=O)N[C@@H](CC(C)C)C(=O)N[C@H](C(=O)N[C@@H](CCCNC(=N)N)C(=O)NCC(=O)N[C@@H](CCCNC(=N)N)C(=O)N[C@@H](CCCCNC(=O)[C@@H](N)CCCCNC(=O)COCCOCCNC(=O)COCCOCCNC(=O)CC[C@H](NC(=O)CCCCCCCCCOc1ccc(C(=O)O)cc1)C(=O)O)C(=O)O)C(C)C` [Example 5], the half-inhibitory concentration (IC50) was determined as 64 nM in assay [1] (setting [3]) and 1.03 nM in assay [1] (setting [6]). Besides, the concentration for a half-maximal effect (EC50) worked out at 0.0054 nM in assay [2] (setting [4]) and 0.033 nM in assay [2] (setting [5]).

With `CC[C@H](C)[C@H](NC(=O)[C@H](Cc1ccccc1)NC(=O)[C@H](CCC(=O)O)NC(=O)[C@H](CCCCNC(=O)[C@@H](N)CCCCNC(=O)[C@@H](N)CCCCNC(=O)CC[C@H](NC(=O)CCCCCCCNC(=O)CCCCCCCCCOc1ccc(C(=O)O)cc1)C(=O)O)NC(=O)[C@H](C)NC(=O)[C@H](C)NC(=O)[C@H](CCC(N)=O)NC(=O)CNC(=O)[C@H](CCC(=O)O)NC(=O)[C@H](CC(C)C)NC(=O)[C@H](Cc1ccc(O)cc1)NC(=O)[C@H](CO)NC(=O)[C@H](CO)NC(=O)[C@@H](NC(=O)[C@H](CC(=O)O)NC(=O)[C@H](CO)NC(=O)[C@@H](NC(=O)[C@H](Cc1ccccc1)NC(=O)[C@@H](NC(=O)CNC(=O)[C@H](CCC(=O)O)NC(=O)C(C)(C)NC(=O)[C@@H](N)Cc1c[nH]cn1)[C@@H](C)O)[C@@H](C)O)C(C)C)C(=O)N[C@@H](C)C(=O)N[C@@H](Cc1c[nH]c2ccccc12)C(=O)N[C@@H](CC(C)C)C(=O)N[C@H](C(=O)N[C@@H](CCCNC(=N)N)C(=O)NCC(=O)N[C@@H](CCCNC(=N)N)C(=O)N[C@@H](CCCCNC(=O)[C@@H](N)CCCCNC(=O)[C@@H](N)CCCCNC(=O)CC[C@H](NC(=O)CCCCCCCNC(=O)CCCCCCCCCOc1ccc(C(=O)O)cc1)C(=O)O)C(=O)O)C(C)C` [Example 26, N^ε26-[(2S)-2-amino-6-[[(2S)-2-amino-6-[[(4S)-4-carboxy-4-[8-[10-(4-carboxyphenoxy)decanoylamino]octanoylamino]butanoyl]amino]hexanoyl]amino]hexanoyl], N^ε37-[(2S)-2-amino-6-[[(2S)-2-amino-6-[[(4S)-4-carboxy-4-[8-[10-(4-carboxyphenoxy)decanoylamino]octanoylamino]butanoyl]amino]hexanoyl]amino]hexanoyl]-[Aib^8,Arg^34,Lys^37]-GLP-1-(7-37)-peptide], the IC50 came out at 106 nM in assay [1] (setting [3]) and 0.38 nM in assay [1] (setting [6]).
